In brackets after ≈: the same amount, converted by molar mass. Several values for one entry are separate records, joined by “and”; a condition that tells them apart may be missing. Equal entries are not always repeated. Where two headings read alike, the source gives them in different places.
Assays:
in vivo [1] = conditions: rat, plasma, ip, 30 mg/kg
Procedure: (§1) For each time point, the mean (± SEM) daptomycin levels in plasma from four animals was determined.

[2] = Pharmacokinetic levels in rat plasma; conditions: 30 mg/kg i.p. twice daily, day 4
Procedure: as §1

[3] = Screening of side effects: serum liver, kidney and muscle markers; assay type: in vivo, rat
Procedure: To check for potential side effects of the twice-daily 30 mg/kg daptomycin regimen, serum samples of the daptomycin-treated and control rats were collected at day 8 for determination of liver, kidney, and muscle enzyme markers, namely aspartate aminotransferase (ASAT) and alanine aminotransferase (ALAT) activities, serum creatinine, and creatine kinase, respectively, using standard analytical methods.

[4] = rats, 30 mg/kg once daily, cited from earlier work
[5] = rats, cited from earlier work
[6] = test system: methicillin-susceptible S. aureus (MSSA) strain I20; experiment: microbe, parasite or virus in culture; assay type: cell-based, Staphylococcus aureus
Procedure: To screen for the possible carryover effects of each antibiotic during the MBC determinations, 0.1-mL portions were taken from all tubes with no visible growth. These were subcultured, either undiluted or diluted 10-fold in saline, on Mueller-Hinton agar (MHA) for 36 h at 37°C. The MBC was defined as the lowest concentration that killed 99.9% of the original inoculum. Each MIC and MBC determination was performed three times and the modal values are presented. In additional control experiments, MICs and MBCs were performed in CAMHB supplemented with 50% TCF.

[7] = rat, in vivo, cited from earlier work
in vivo [8] = conditions: Wistar, rat, tissue cage fluid (TCF), ip, 30 mg/kg
Procedure: as §1

[9] = Pharmacokinetic levels in rat tissue cage fluid (TCF)
Procedure: as §1

[10] = test system: methicillin-susceptible S. aureus (MSSA) strain I20; experiment: MIC, standard tube macrodilution (CLSI); assay type: cell-based; conditions: Staphylococcus aureus
Procedure: The methicillin-susceptible S. aureus (MSSA) strain I20 is a previously described clinical isolate from catheter-related sepsis, which is highly virulent in the rat model of chronic S. aureus tissue cage infection. Strain I20 is uniformly susceptible to all antibiotics except penicillin.
The MICs of oxacillin and vancomycin for strain I20 were determined in cation-adjusted Mueller-Hinton broth (CAMHB) containing 20-25 mg/L Ca^2+ and 10-12.5 mg/L Mg^2+ by the standard tube macrodilution method with an average inoculum of 10^6 CFU/mL as described by the Clinical Laboratory Standards Institute (CLSI). For daptomycin MIC, CAMHB was supplemented with additional calcium to a physiological concentration of 50 mg/L Ca^2+ (CSMHB).
Each MIC and MBC determination was performed three times and the modal values are presented. In additional control experiments, MICs and MBCs were performed in CAMHB supplemented with 50% TCF.

MSSA strain I20 [11] = assay type: in vivo, Staphylococcus aureus; conditions: Wistar rats, i.p. twice daily for 7 days: daptomycin 30 mg/kg, oxacillin 200 mg/kg, vancomycin 50 mg/kg, mean ± SEM, n = 18-19 cages; for average counts in tissue cages at the end of the 7-day therapy: TCF cultured 12 h after last dose; for reduction in bacterial counts in TCF (delta log10 CFU/mL, day 1 to day 8): P < 0.001 vs untreated
Procedure: All animal studies of the daptomycin no 1-study were performed in 1991. These animal studies followed ethical guidelines of that time period and received legal approval from the Veterinary Office of the State of Geneva. Subcutaneous surgical implantation of four tissue cages per animal was performed as described by using Wistar rats that were anaesthetised with an intraperitoneal (i.p.) injection of a mixture of ketamine (90 mg/kg) and xylazine (5 mg/kg). At 3 weeks post-implantation, TCF was aspirated and checked for sterility. To establish a chronic S. aureus infection, tissue cages were inoculated with 0.1 mL of saline containing 0.2 × 10^6 to 2 × 10^6 CFU of a washed overnight culture of strain I20 in CAMHB. Three weeks later, all tissue cages containing more than 10^5 CFU/mL of TCF were included in the therapeutic protocols.
Rats infected with strain I20 were randomised to receive (by the i.p. route for 7 days) twice-daily regimens of either daptomycin (30 mg/kg), oxacillin (200 mg/kg), or vancomycin (50 mg/kg), or were left untreated. At 12 h after the last injection of antibiotic, quantitative cultures of 10-fold serially diluted TCF were performed on MHA. To optimise the yield of viable bacteria, TCF were briefly sonicated (60 W, 1 min) to disrupt the biofilm and phagocytic cells before the serial dilutions and plating. Plates were incubated for 24-48 h at 37°C. The detection limit was one colony equivalent to 2 log10 CFU/mL of TCF. The differences in CFU counts between day 1 and day 8 were determined and expressed as delta log10CFU/mL. For each treatment group, results were expressed as means ± standard errors of the means (SEM). Comparison of bacterial counts in the different groups was performed by ANOVA and Newman-Keuls multiple comparisons procedures using Microsoft Excel® 2000 software. Data were considered significant when P was < 0.05 by using two-tailed significance levels.

MSSA strain I20 [12] = experiment: Killing kinetic (time-kill) studies; assay type: cell-based, Staphylococcus aureus; conditions: 8 mg/L in CAMHB; 10^6 CFU exponential-phase; 37°C; one representative of three experiments
Procedure: 0.1-mL portions containing 10^6 CFU of strain I20 (obtained from exponential-phase cultures) were added to sterile plastic tubes containing 1 mL of either CSMHB containing 8 mg/L of daptomycin, or CAMHB containing 8 mg/L of oxacillin or vancomycin, in a shaking waterbath at 37°C. The number of viable organisms was determined by subculturing 50 μL of 10-fold diluted portions on MHA after 0, 2, 4, 6, and 24 h of incubation. Colonies were enumerated with a laser colony counter (Spiral System) after 48 h of incubation at 37°C. The detection limit was 2 log10 CFU/mL. […] Each killing kinetic experiment was repeated three times and results from one representative experiment are presented.

[13] = twice-daily oxacillin 200 mg/kg or vancomycin 50 mg/kg
[14] = Staphylococcus aureus, MSSA, CAMHB, lowest concentration killing 99.9% of inoculum, subculture on MHA 36 h 37°C, modal value of 3, read-out: MBC

Which results are given for `CCCCCCCCCC(=O)N[C@@H](Cc1c[nH]c2ccccc12)C(=O)N[C@H](CC(N)=O)C(=O)N[C@@H](CC(=O)O)C(=O)N[C@@H]1C(=O)NCC(=O)N[C@@H](CCCN)C(=O)N[C@@H](CC(=O)O)C(=O)N[C@H](C)C(=O)N[C@@H](CC(=O)O)C(=O)NCC(=O)N[C@H](CO)C(=O)N[C@@H]([C@H](C)CC(=O)O)C(=O)N[C@@H](CC(=O)c2ccccc2N)C(=O)O[C@@H]1C` [daptomycin]?
level at 12 h (in vivo [1]): 9100 ng/mL; plasma AUC0-24h ([2]; rats, AUC0-12 by linear trapezoidal rule multiplied by two): 1667 µg·h/mL; mean peak plasma level ([2]; uninfected rats, at 1 h, microbiological assay, mean of four animals): 173 mg/L; exterior signs of toxicity ([3]; rats receiving twice-daily doses (30 mg/kg)): No exterior sign of toxicity; liver toxicity (overall assessment) ([3]; rats treated with high-dose daptomycin (30 mg/kg twice daily, 7 days)): only mild liver toxicity; ALAT (alanine aminotransferase) activity in serum ([3]; rats, 30 mg/kg i.p. twice daily for 7 days, serum at day 8, n = 5, control 41 ± 11): 46 ± 9 IU/L; serum creatinine ([3]; rats, 30 mg/kg i.p. twice daily for 7 days, serum at day 8, n = 5, control 50 ± 5): 53 ± 5 μM/L; ASAT (aspartate aminotransferase) activity in serum ([3]; rats, 30 mg/kg i.p. twice daily for 7 days, serum at day 8, n = 5, control 146 ± 36): 216 ± 24 IU/L; creatine kinase in serum ([3]; rats, 30 mg/kg i.p. twice daily for 7 days, serum at day 8, n = 5, control 1349 ± 820): 1393 ± 886 IU/L; plasma AUC0-24h [4]: 558 µg·h/mL; peak plasma level ([4]; day 4, HPLC): 141 mg/L; trough plasma level ([4]; day 4, HPLC): 0 mg/L; plasma level at 12 h ([4]; day 4): 1000 ng/mL; TCF AUC0-24h as percentage of plasma AUC0-24h ([5]; 30 mg/kg daily regimen (printed as daptomycin no 1-study)): 35%; TCF AUC0-24h ([5]; 30 mg/kg once daily): 196 µg·h/mL; TCF level at 12 h (intermediate value) ([5]; 30 mg/kg once daily): 10.0 mg/L; mean peak level in TCF ([5]; 30 mg/kg once daily): 11.8 mg/L; mean trough level in TCF ([5]; 30 mg/kg once daily): 3.4 mg/L; MBC ([6]; methicillin-susceptible strain I20, 36 h): 1 µg/mL (≈ 0.617 µM); plasma AUC0-24h ([7]; 25 mg/kg): 278 µg·h/mL; plasma AUC0-24h ([7]; 40 mg/kg): 605 µg·h/mL; level at 4 day (in vivo [8]): 21000 ng/mL; TCF AUC0-24h ([9]; rats, 30 mg/kg i.p. twice daily, day 4, AUC0-12 by linear trapezoidal rule multiplied by two): 1073 µg·h/mL; TCF AUC0-24h as percentage of plasma AUC0-24h ([9]; rats, 30 mg/kg twice-daily regimen (printed as daptomycin no 2-study)): 64%; mean peak level in TCF ([9]; uninfected rats, 30 mg/kg i.p. twice daily, day 4, microbiological assay, mean of six animals): 66 mg/L

For `Cc1onc(-c2ccccc2)c1C(=O)N[C@@H]1C(=O)N2[C@@H]1SC(C)(C)[C@@H]2C(=O)O` [oxacillin], which MIC ([10]; CAMHB (20-25 mg/L Ca2+, 10-12.5 mg/L Mg2+), tube macrodilution, inoculum 10^6 CFU/mL, modal value of 3 determinations, read-out: MIC) is on record?
The MIC was 0.5 µg/mL (≈ 1.25 µM).

And the “trough TCF level” value [5, 13]?
The value was 5.7 mg/L.

What about the MBC [6, 14] of the same compound?
The MBC was 1 µg/mL (≈ 2.49 µM).

What about the “average counts in tissue cages at the end of the 7-day therapy” value (MSSA strain I20 [11]) of the same compound?
The value was 5.90 ± 0.25 log10 CFU/mL.

What about the “reduction in bacterial counts in TCF (delta log10 CFU/mL, day 1 to day 8)” value (MSSA strain I20 [11]) of the same compound?
The value was 0.92 log10 CFU/mL and 0.92 ± 0.21 log10 CFU/mL.

And the “time after which reduction in viable counts exceeded 3 log10 CFU/mL” value (MSSA strain I20 [12])?
Its value is 4 h.

What does the source list for `CN[C@H](CC(C)C)C(=O)N[C@H]1C(=O)N[C@@H](CC(N)=O)C(=O)N[C@H]2C(=O)N[C@H]3C(=O)N[C@H](C(=O)N[C@H](C(=O)O)c4cc(O)cc(O)c4-c4cc3ccc4O)[C@H](O)c3ccc(c(Cl)c3)Oc3cc2cc(c3O[C@@H]2O[C@H](CO)[C@@H](O)[C@H](O)[C@H]2O[C@H]2C[C@](C)(N)[C@H](O)[C@H](C)O2)Oc2ccc(cc2Cl)[C@H]1O` [vancomycin]?
MIC [10]: 1 µg/mL (≈ 0.69 µM); peak TCF level [5, 13]: 12 mg/L; trough TCF level [5, 13]: 2 mg/L; MBC [6, 14]: 2 µg/mL (≈ 1.38 µM); average counts in tissue cages at the end of the 7-day therapy (MSSA strain I20 [11]): 5.49 ± 0.21 log10 CFU/mL; reduction in bacterial counts in TCF (delta log10 CFU/mL, day 1 to day 8) (MSSA strain I20 [11]): 0.96 log10 CFU/mL and 0.96 ± 0.24 log10 CFU/mL; time after which reduction in viable counts exceeded 3 log10 CFU/mL (MSSA strain I20 [12]): 4 h
